Key:
[1] = target: T1, Cytochrome P450 1A2 (Homo sapiens, UniProt P05177); experiment: Inhibition of CYP1A2 (unknown origin); type: ADME
T1 sequence (P05177 whole entry): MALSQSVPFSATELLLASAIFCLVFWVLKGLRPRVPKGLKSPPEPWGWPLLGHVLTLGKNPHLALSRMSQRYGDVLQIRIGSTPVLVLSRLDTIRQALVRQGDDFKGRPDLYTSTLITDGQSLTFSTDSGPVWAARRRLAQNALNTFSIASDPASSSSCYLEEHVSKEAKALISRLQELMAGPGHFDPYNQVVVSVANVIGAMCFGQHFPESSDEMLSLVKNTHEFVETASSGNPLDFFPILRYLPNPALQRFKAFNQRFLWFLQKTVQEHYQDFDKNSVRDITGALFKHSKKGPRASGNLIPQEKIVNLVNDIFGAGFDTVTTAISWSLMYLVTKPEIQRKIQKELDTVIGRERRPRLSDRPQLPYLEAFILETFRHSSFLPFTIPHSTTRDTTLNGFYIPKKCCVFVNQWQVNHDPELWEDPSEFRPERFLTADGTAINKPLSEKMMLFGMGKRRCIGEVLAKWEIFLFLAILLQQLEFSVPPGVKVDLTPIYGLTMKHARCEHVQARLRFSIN

[2] = target: Cytochrome P450 2C19 (Homo sapiens, UniProt P33261); experiment: Inhibition of CYP2C19 (unknown origin); type: ADME
Chain of Cytochrome P450 2C19 (P33261 whole entry): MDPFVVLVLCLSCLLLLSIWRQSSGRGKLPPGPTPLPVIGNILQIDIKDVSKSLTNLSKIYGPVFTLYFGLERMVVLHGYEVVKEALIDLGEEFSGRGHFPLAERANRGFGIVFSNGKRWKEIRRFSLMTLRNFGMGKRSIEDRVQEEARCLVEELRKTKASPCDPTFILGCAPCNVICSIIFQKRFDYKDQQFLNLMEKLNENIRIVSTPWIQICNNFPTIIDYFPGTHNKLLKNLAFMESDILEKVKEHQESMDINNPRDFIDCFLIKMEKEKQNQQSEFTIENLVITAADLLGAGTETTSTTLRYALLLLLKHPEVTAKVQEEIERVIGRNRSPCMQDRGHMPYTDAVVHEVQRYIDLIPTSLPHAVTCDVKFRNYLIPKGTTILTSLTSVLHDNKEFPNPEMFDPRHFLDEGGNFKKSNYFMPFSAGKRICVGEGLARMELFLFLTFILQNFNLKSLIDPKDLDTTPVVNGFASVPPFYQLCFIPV

[3] = target: Cytochrome P450 2D6 (Homo sapiens, UniProt P10635)
Chain of Cytochrome P450 2D6 (P10635 whole entry): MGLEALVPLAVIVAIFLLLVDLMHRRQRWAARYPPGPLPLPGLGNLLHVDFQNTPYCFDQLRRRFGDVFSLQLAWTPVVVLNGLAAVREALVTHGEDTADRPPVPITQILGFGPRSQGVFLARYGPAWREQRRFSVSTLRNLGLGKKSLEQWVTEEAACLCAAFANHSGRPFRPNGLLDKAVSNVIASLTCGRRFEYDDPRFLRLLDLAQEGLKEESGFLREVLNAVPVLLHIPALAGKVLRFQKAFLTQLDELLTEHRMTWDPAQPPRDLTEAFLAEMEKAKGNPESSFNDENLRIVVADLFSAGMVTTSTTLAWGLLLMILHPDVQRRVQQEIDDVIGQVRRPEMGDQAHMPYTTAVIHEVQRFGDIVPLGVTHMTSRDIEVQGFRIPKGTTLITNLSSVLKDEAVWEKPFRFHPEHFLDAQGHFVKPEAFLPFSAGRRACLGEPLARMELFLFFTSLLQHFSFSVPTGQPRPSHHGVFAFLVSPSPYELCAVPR

[4] = target: Cytochrome P450 3A4 (Homo sapiens, UniProt P08684)
Chain of Cytochrome P450 3A4 (P08684 whole entry): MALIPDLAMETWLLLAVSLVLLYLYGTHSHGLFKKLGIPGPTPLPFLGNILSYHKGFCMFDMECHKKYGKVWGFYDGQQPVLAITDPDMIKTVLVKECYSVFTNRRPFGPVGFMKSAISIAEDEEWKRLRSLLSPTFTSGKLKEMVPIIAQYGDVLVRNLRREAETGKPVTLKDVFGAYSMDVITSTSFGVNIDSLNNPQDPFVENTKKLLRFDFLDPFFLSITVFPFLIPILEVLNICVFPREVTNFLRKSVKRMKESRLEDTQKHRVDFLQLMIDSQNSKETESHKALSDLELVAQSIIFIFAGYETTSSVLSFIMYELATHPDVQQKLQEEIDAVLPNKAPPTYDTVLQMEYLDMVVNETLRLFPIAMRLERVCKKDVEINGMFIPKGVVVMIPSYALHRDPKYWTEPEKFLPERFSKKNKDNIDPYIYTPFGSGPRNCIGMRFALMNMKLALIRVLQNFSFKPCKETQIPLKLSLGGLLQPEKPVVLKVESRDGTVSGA

[5] = target: Cytochrome P450 2C9 (Homo sapiens, UniProt P11712); experiment: Inhibition of CYP2C9 (unknown origin); type: ADME
Chain of Cytochrome P450 2C9 (P11712 whole entry): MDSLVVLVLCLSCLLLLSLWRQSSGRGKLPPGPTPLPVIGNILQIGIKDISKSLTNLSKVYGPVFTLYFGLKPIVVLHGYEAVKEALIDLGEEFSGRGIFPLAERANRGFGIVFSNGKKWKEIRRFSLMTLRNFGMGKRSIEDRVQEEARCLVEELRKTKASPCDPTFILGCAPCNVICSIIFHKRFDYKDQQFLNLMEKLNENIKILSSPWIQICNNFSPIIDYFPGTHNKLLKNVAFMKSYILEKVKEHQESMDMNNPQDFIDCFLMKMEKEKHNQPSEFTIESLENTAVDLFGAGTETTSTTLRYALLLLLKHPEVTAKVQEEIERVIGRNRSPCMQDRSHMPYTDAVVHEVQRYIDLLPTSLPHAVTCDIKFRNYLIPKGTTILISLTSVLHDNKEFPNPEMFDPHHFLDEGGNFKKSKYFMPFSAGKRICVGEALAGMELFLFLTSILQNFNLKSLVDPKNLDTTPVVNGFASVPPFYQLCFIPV

[6] = Drug metabolism in CD1 mouse liver microsomes at 10 uM after 30 mins by LCMS analysis; type: ADME; settings: read-out: Drug metabolism
[7] = target: CDK2/Cyclin A2 (Homo sapiens, UniProt P24941)
[8] = Antiproliferative activity against human HCT116 cells assessed as cell viability after 72 hrs by MTT assay; type: functional; settings: HCT-116, 72 h

Row | metabolised at 0.5 h, 10 µM [6] [%] | SMILES | GI50 [8] [µM] | further results
1 | – | Cn1cc(-c2cc3cnc(Nc4ccc(-c5cncn5C)cc4Cl)cc3n2C(=O)OC(C)(C)C)cn1 | – | IC50 [1]: < 1 µM; IC50 [2]: < 1 µM; IC50 [3]: < 1 µM; IC50 [4]: < 1 µM; IC50 [5]: < 1 µM
2 | 45 | CCOc1cc(-c2cnn(C)c2)ccc1Nc1ncc2ccnc(-c3cnn(C)c3)c2n1 | – | IC50 [7]: > 45 µM
3 | 22 | COc1cc(-c2cnn(C)c2)ccc1Nc1ncc2ccnc(NC3CCCCC3)c2n1 | 0.12 | IC50 [7]: 0.19 µM; Ki [7]: 0.1 µM
4 | 51 | COc1cc(-c2cnn(C)c2)ccc1Nc1ncc2ccnc(C3CC3)c2n1 | – | –
5 | 63 | Cc1cc(-c2cnn(C)c2)ccc1Nc1ncc2ccnc(-c3cnn(C)c3)c2n1 | – | –
6 | 40 | COc1cc(-c2cnn(C)c2)ccc1Nc1ncc2ccnc(-c3ccccc3)c2n1 | – | –
7 | 25 | COc1cc(-c2cnn(C)c2)ccc1Nc1ncc2ccnc(N[C@H](C)C(C)(C)C)c2n1 | 0.22 | –
8 | 64 | COc1cc(-c2cnn(C)c2)ccc1Nc1ncc2ccnc(N3CCCC3)c2n1 | 0.47 | –
9 | 31 | COc1cc(-c2cnn(C)c2)ccc1Nc1ncc2ccnc(NCC(C)(C)C)c2n1 | 0.34 | –

Reference: ChEMBL document CHEMBL3808337, “Rapid Discovery of Pyrido[3,4-d]pyrimidine Inhibitors of Monopolar Spindle Kinase 1 (MPS1) Using a Structure-Based Hybridization Approach” (J Med Chem, 2016)
